Data on six compounds can be found in patent US11958813B2, “Uracil compound containing carboxylate fragment, preparation method therefor, and herbicidal composition and use thereof” (JIANGSU FLAG CHEMICAL INDUSTRY CO., LTD., priority 2021, dated 2024).

Broadly, the inhibition is the percentage by which the read-out fell short of the control.

What all share (experiment): Greenhouse herbicidal activity test, post-emergence
What all share (format): in vivo

One assay deals with Polypogon fugax. The conditions noted are these: determined 21 days later; for inhibition at 7.5 g/ha / inhibition at 15 g/ha: Polypogon fugax, 504 h, read-out: fresh weight inhibition rate, Polypogon fugax. From the text:
(§1) A herbicidal activity test method for the compounds of the present invention was as follows:
(§2) Post-emergence: an appropriate quantity of seeds of gramineous weeds (Echinochloa crusgalli, Eleusine indica, Digitaria sanguinalis, Alopecurus japonicus, Beckmannia syzigachne, Leptochloa chinensis, Polypogon fugax, Alopecurus aequalis, Lolium multiflorum, and Poa annua), broad-leaved weeds (Eclipta prostrata, Amaranthus retroflexus, Brassica juncea, Malachium aquaticum, Conyza canadensis, and Sesbania cannabina), and Cyperus iria were sown in plastic pots having a diameter of 7 cm and holes at the bottom and filled with nutrient soil (sandy soil, pH 6.1, organic matter 1%) respectively, the seeds were covered with an appropriate amount of soil after being sown, then the soil was wetted with water from the bottom, the seeds were cultured in a constant-temperature illuminated culture room until a 2-4 leaf stage, and stems and leaves underwent spray treatment. After the treatment, the test materials were placed in a laboratory and cultured in the constant-temperature illuminated culture room after the liquid was naturally dry in the shade, and results were determined 21 days later.
(§3) According to the foregoing test method, a parallel experiment was carried out on herbicidal activities of some compounds of the general formula (I), the compound Butafenacil (compound 47 in the patent specification) specifically disclosed in U.S. Pat. No. 5,183,492A, and the compound CK (compound 1 in the patent specification) specifically disclosed in U.S. Pat. No. 5,183,492A, at application doses of 7.5 g a.i./ha and 15 g a.i./ha.

For the next assay, the system named is Sesbania cannabina. The settings on record: determined 21 days later; for inhibition at 7.5 g/ha / inhibition at 15 g/ha: Sesbania cannabina, 504 h, read-out: fresh weight inhibition rate, Sesbania cannabina.
From the text: as §1, §2, §3

The subject of another assay is Alopecurus japonicus. The conditions noted are these: determined 21 days later; for inhibition at 7.5 g/ha / inhibition at 15 g/ha: Alopecurus japonicus, 504 h, read-out: fresh weight inhibition rate, Alopecurus japonicus.
From the text: as §1, §2, §3

Each structure is given as a SMILES string.

On to `C=CCOC(=O)C(C)(C)OC(=O)c1cc(-n2c(=O)cc(C(F)(F)F)n(C)c2=O)ccc1Cl` [Butafenacil, reference compound], for which the inhibition at 7.5 g/ha in the assay with Polypogon fugax (dose 7.5 g a.i./ha) was less than 55%; with Sesbania cannabina (dose 7.5 g a.i./ha), 55 to 70%; in the assay with Alopecurus japonicus (dose 7.5 g a.i./ha), less than 55%. In addition, the results for the inhibition at 15 g/ha with Polypogon fugax (dose 15 g a.i./ha), with Sesbania cannabina (dose 15 g a.i./ha) and with Alopecurus japonicus (dose 15 g a.i./ha) were 55 to 70%, 70 to 85% and less than 55%, respectively.
Take `COC(=O)C(C)OC(=O)c1cc(-n2c(=O)cc(C(F)(F)F)n(C)c2=O)c(F)cc1Cl` (stereo not drawn) [CK, reference compound]: the inhibition at 7.5 g/ha in the assay on Polypogon fugax (dose 7.5 g a.i./ha) was less than 55%; in the assay with Sesbania cannabina (dose 7.5 g a.i./ha), 55 to 70%; in the assay on Alopecurus japonicus (dose 7.5 g a.i./ha), less than 55%. The results for the inhibition at 15 g/ha in the assay on Polypogon fugax (dose 15 g a.i./ha), in the assay with Sesbania cannabina (dose 15 g a.i./ha) and in the assay with Alopecurus japonicus (dose 15 g a.i./ha) were 55 to 70%, 70 to 85% and 55 to 70%, respectively.
With `COCCOC(=O)COC(=O)c1cc(-n2c(=O)cc(C(F)(F)F)n(C)c2=O)c(F)cc1Cl` [Compound 3], the “fresh weight inhibition rate, Polypogon fugax” value with Polypogon fugax (dose 7.5 g a.i./ha) was “B (B indicates that the inhibition rate was greater than or equal to 70% to less than 85%)”; in the assay with Polypogon fugax (dose 15 g a.i./ha), “A (A indicates that the inhibition rate was greater than or equal to 85% to 100%)”. Moreover, the “fresh weight inhibition rate, Sesbania cannabina” value with Sesbania cannabina (dose 7.5 g a.i./ha) and with Sesbania cannabina (dose 15 g a.i./ha) was “A (A indicates that the inhibition rate was greater than or equal to 85% to 100%)” each time. Also, the “fresh weight inhibition rate, Alopecurus japonicus” value in the assay on Alopecurus japonicus (dose 7.5 g a.i./ha) is reported as “B (B indicates that the inhibition rate was greater than or equal to 70% to less than 85%)”; with Alopecurus japonicus (dose 15 g a.i./ha), “A (A indicates that the inhibition rate was greater than or equal to 85% to 100%)”.
In the case of `COCCOC(=O)C(C)(C)OC(=O)c1cc(-n2c(=O)cc(C(F)(F)F)n(C)c2=O)c(F)cc1Cl` [Compound 207], the “fresh weight inhibition rate, Polypogon fugax” value in the assay with Polypogon fugax (dose 7.5 g a.i./ha) and in the assay on Polypogon fugax (dose 15 g a.i./ha) was “A (A indicates that the inhibition rate was greater than or equal to 85% to 100%)” each time. The “fresh weight inhibition rate, Sesbania cannabina” value in the assay on Sesbania cannabina (dose 7.5 g a.i./ha) and with Sesbania cannabina (dose 15 g a.i./ha) was “A (A indicates that the inhibition rate was greater than or equal to 85% to 100%)” each time. For the same compound, the “fresh weight inhibition rate, Alopecurus japonicus” value with Alopecurus japonicus (dose 7.5 g a.i./ha) and with Alopecurus japonicus (dose 15 g a.i./ha) was “A (A indicates that the inhibition rate was greater than or equal to 85% to 100%)” throughout.
Turning to `C=CCOCCOC(=O)C(C)(C)OC(=O)c1cc(-n2c(=O)cc(C(F)(F)F)n(C)c2=O)c(F)cc1Cl` [Compound 214], the “fresh weight inhibition rate, Polypogon fugax” value in the assay on Polypogon fugax (dose 7.5 g a.i./ha) and in the assay with Polypogon fugax (dose 15 g a.i./ha) was “A (A indicates that the inhibition rate was greater than or equal to 85% to 100%)” in each case. Further, the “fresh weight inhibition rate, Sesbania cannabina” value with Sesbania cannabina (dose 7.5 g a.i./ha) and in the assay with Sesbania cannabina (dose 15 g a.i./ha) was “A (A indicates that the inhibition rate was greater than or equal to 85% to 100%)” throughout. Moreover, the “fresh weight inhibition rate, Alopecurus japonicus” value in the assay on Alopecurus japonicus (dose 7.5 g a.i./ha) and in the assay on Alopecurus japonicus (dose 15 g a.i./ha) was “A (A indicates that the inhibition rate was greater than or equal to 85% to 100%)” each time.
On to `COCCOC(=O)C1(OC(=O)c2cc(-n3c(=O)cc(C(F)(F)F)n(C)c3=O)c(F)cc2Cl)CC1` [Compound 258], for which the “fresh weight inhibition rate, Polypogon fugax” value in the assay on Polypogon fugax (dose 7.5 g a.i./ha) and in the assay on Polypogon fugax (dose 15 g a.i./ha) was “A (A indicates that the inhibition rate was greater than or equal to 85% to 100%)” throughout. The “fresh weight inhibition rate, Sesbania cannabina” value with Sesbania cannabina (dose 7.5 g a.i./ha) and in the assay on Sesbania cannabina (dose 15 g a.i./ha) was “A (A indicates that the inhibition rate was greater than or equal to 85% to 100%)” throughout. Besides, the “fresh weight inhibition rate, Alopecurus japonicus” value in the assay with Alopecurus japonicus (dose 7.5 g a.i./ha) and in the assay with Alopecurus japonicus (dose 15 g a.i./ha) was “A (A indicates that the inhibition rate was greater than or equal to 85% to 100%)” in each case.
